Experimental data from patent US20250206757A1 (GASHERBRUM BIO, INC., priority 2022, published 2025).

Molecular target: GLP-1 Receptor (Homo sapiens, UniProt P43220)
Assay: GLP-1R agonist cAMP stimulation assay (HEK293/GLP1R/CRE-LUC cells, HTRF cAMP dynamic 2 kit)
Assay type: cell-based
Settings: HEK293/CRE-Luc cell line stably expressing the GLP-1 Receptor; 30 min incubation at 37° C.
Method: Activation of GLP-1 receptor is known to stimulate cyclic AMP (cAMP) production in cells which indicates primary coupling to the Gas subunit of the G protein heterotrimeric complex.
To optimize functional activity directed toward Gas coupling, a HEK293/CRE-Luc cell line developed by HDB stably expressing the GLP-1 Receptor was used. 200× concentration of compound working solutions were prepared (Agilent Technologies Bravo) with 1/2 log serial dilution in 384-well Echo LDV plate (Labcyte, Cat #LP-0200). 50 nL/well 200× concentration of compound working solutions were moved to 384-well white low volume plate (Greiner, Cat #784075) using Labcyte ECHO550. 1×10^5 cells/mL HEK293/GLP1R/CRE-LUC (HD Biosciences) cell suspensions prepared with assay buffer [DPBS containing 0.5 mM IBMX (Sigma, Cat #15879) and 0.10% BSA (GENVIEW, Cat #FA016-100g)], 10 μL cell suspensions were added to each well of previous generated assay plate which already contains 50 nL compound at 200× concentration using ThermoFisher Multidrop Combi (1000 cells/well). Seal the plate and incubate at 37° C. with 5% CO2 for 30 min.
After incubation the cAMP assay signal was generated using cAMP dynamic 2 Kit (Cisbio). 5 μL cAMP-d2 working solution was added to each well, followed with 5 μL Anti-cAMP antibody-cryptate working solution added to each well using ThermoFisher Multidrop Combi. Incubate at room temperature for 1 hour protected from light. Read the fluorescence at 665 and 615 nm with Reader PerkinElmer EnVision.

Sequence of GLP-1 Receptor (P43220 24-463): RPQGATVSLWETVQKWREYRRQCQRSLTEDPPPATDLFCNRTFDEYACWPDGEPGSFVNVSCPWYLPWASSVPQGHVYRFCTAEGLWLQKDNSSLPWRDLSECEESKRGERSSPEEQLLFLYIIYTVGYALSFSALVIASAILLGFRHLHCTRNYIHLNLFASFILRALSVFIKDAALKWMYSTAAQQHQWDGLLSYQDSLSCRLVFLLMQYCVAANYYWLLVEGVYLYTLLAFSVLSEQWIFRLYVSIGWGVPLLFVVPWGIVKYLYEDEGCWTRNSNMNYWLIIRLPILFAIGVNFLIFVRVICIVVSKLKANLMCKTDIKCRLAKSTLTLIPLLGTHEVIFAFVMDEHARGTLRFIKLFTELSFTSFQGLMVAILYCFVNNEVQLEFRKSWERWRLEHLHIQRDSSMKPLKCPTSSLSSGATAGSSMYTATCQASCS

| Compound | EC50 |
| --- | --- |
| CS(=O)(=O)c1nnc(-c2ccc3c(c2)nc(CN2CCc4cc(C(F)(F)F)c(OCc5ccc(Cl)cc5F)nc4C2)n3C[C@@H]2CCO2)[nH]1 [Compound 87, 2-[(4-chloro-2-fluorophenyl)methoxy]-7-{[5-(5-methanesulfonyl-4H-1,2,4-triazol-3-yl)-1-{[(2S)-oxetan-2-yl]methyl}-1H-1,3-benzodiazol-2-yl]methyl}-3-(trifluoromethyl)-5,6,7,8-tetrahydro-1,7-naphthyridine] | 1 to 300 nM |
| Fc1cc(Cl)ccc1COc1nc2c(cc1C(F)(F)F)CCN(Cc1nc3cc(-c4nnc(C(F)(F)F)[nH]4)ncc3n1C[C@@H]1CCCO1)C2 [Compound 79, 2-[(4-chloro-2-fluorophenyl)methoxy]-7-[(3-{1[(2S)-oxolan-2-yl]methyl}-6-[5-(trifluoromethyl)-4H-1,2,4-triazol-3-yl]-3H-imidazo[4,5-c]pyridin-2-yl)methyl]-3-(trifluoromethyl)-5,6,7,8-tetrahydro-1,7-naphthyridine] | 1 to 300 nM |
| CN(C)C(=O)c1nnc(-c2cc3nc(CN4CCc5cc(C(F)(F)F)c(OCc6ccc(Cl)cc6F)nc5C4)n(C[C@@H]4CCO4)c3cn2)[nH]1 [Compound 95, 5-[2-({2-[(4-chloro-2-fluorophenyl)methoxy]-3-(trifluoromethyl)-5,6,7,8-tetrahydro-1,7-naphthyridin-7-yl}methyl)-3-{[(2S)-oxetan-2-yl]methyl}-3H-imidazo[4,5-c]pyridin-6-yl]-N,N-dimethyl-4H-1,2,4-triazole-3-carboxamide] | 1 to 300 nM |
| O=c1[nH]c(-c2cc3nc(CN4CCc5cc(C(F)(F)F)c(OCc6ccc(Cl)cc6F)nc5C4)n(C[C@@H]4CCO4)c3cc2F)no1 [Compound 38, 3-[2-({2-[(4-chloro-2-fluorophenyl)methoxy]-3-(trifluoromethyl)-5,6,7,8-tetrahydro-1,7-naphthyridin-7-yl}methyl)-6-fluoro-1-{[(2S)-oxetan-2-yl]methyl}-1H-1,3-benzodiazol-5-yl]-4,5-dihydro-1,2,4-oxadiazol-5-one] | 1 to 300 nM |
| O=C(NCC(F)(F)F)c1cc2nc(CN3CCc4cc(C(F)(F)F)c(OCc5ccc(Cl)cc5F)nc4C3)n(C[C@@H]3CCO3)c2cn1 [Compound 23, 2-({2-[(4-chloro-2-fluorophenyl)methoxy]-3-(trifluoromethyl)-5,6,7,8-tetrahydro-1,7-naphthyridin-7-yl}methyl)-3-{[(2S)-oxetan-2-yl]methyl}-N-(2,2,2-trifluoroethyl)-3H-imidazo[4,5-c]pyridine-6-carboxamide] | 1 to 300 nM |
| NC(=O)c1ccc2c(c1)nc(CN1CCc3cc(C(F)(F)F)c(OCc4ccc(Cl)cc4F)nc3C1)n2C[C@@H]1CCO1 [Compound 92, 2-({2-[(4-chloro-2-fluorophenyl)methoxy]-3-(trifluoromethyl)-5,6,7,8-tetrahydro-1,7-naphthyridin-7-yl}methyl)-1-{[(2S)-oxetan-2-yl]methyl}-1H-1,3-benzodiazole-5-carboxamide] | 1 to 300 nM |
| Fc1cc(Cl)ccc1COc1nc2c(cc1C(F)(F)F)CCN(Cc1nc3cc(-c4nnc(C(F)(F)F)[nH]4)nnc3n1C[C@@H]1CCO1)C2 [Compound 6, 2-[(4-chloro-2-fluorophenyl)methoxy]-7-[(7-{[(2S)-oxetan-2-yl]methyl}-3-[5-(trifluoromethyl)-4H-1,2,4-triazol-3-yl]-7H-imidazo[4,5-c]pyridazin-6-yl)methyl]-3-(trifluoromethyl)-5,6,7,8-tetrahydro-1,7-naphthyridine] | < 1 nM |
| NC(=O)c1nnc(-c2cc3nc(CN4CCc5cc(C(F)(F)F)c(NCc6ccc(Cl)cc6F)nc5C4)n(C[C@@H]4CCO4)c3cn2)[nH]1 [Compound 107, 5-{2-[(2-{[(4-chloro-2-fluorophenyl)methyl]amino}-3-(trifluoromethyl)-5,6,7,8-tetrahydro-1,7-naphthyridin-7-yl)methyl]-3-{[(2S)-oxetan-2-yl]methyl}-3H-imidazo[4,5-c]pyridin-6-yl}-4H-1,2,4-triazole-3-carboxamide] | < 1 nM |

Second part, the compound after the results:

| EC50 | Compound |
| --- | --- |
| < 1 nM | N#Cc1nnc(-c2cc3nc(CN4CCc5cc(Cl)c(OCc6c(F)cc(Cl)cc6F)nc5C4)n(C[C@@H]4CCO4)c3cn2)[nH]1 [Compound 9, 5-[2-({3-chloro-2-[(4-chloro-2,6-difluorophenyl)methoxy]-5,6,7,8-tetrahydro-1,7-naphthyridin-7-yl}methyl)-3-{[(2S)-oxetan-2-yl]methyl}-3H-imidazo[4,5-c]pyridin-6-yl]-4H-1,2,4-triazole-3-carbonitrile] |
| < 1 nM | Fc1cc(Cl)ccc1CNc1nc2c(cc1C(F)(F)F)CCN(Cc1nc3cc(-c4nnc(C(F)(F)F)[nH]4)ncc3n1C[C@@H]1CCO1)C2 [Compound 109, N-[(4-chloro-2-fluorophenyl)methyl]-7-[(3-{1[(2S)-oxetan-2-yl]methyl}-6-[5-(trifluoromethyl)-4H-1,2,4-triazol-3-yl]-3H-imidazo[4,5-c]pyridin-2-yl)methyl]-3-(trifluoromethyl)-5,6,7,8-tetrahydro-1,7-naphthyridin-2-amine] |
| < 1 nM | Fc1cc(Cl)ccc1COc1nc2c(cc1Cl)CCN(Cc1nc3cc(-c4nnc(C(F)(F)F)[nH]4)nnc3n1C[C@@H]1CCO1)C2 [Compound 7, 3-chloro-2-[(4-chloro-2-fluorophenyl)methoxy]-7-[(7-{[(2S)-oxetan-2-yl]methyl}-3-[5-(trifluoromethyl)-4H-1,2,4-triazol-3-yl]-7H-imidazo[4,5-c]pyridazin-6-yl)methyl]-5,6,7,8-tetrahydro-1,7-naphthyridine] |
| < 1 nM | Fc1cc(Cl)ccc1COc1nc2c(cc1C(F)(F)F)CCN(Cc1nc3cc(-c4nnc(C(F)(F)F)[nH]4)ncc3n1C[C@@H]1CCO1)C2 [Compound 4, 2-[(4-chloro-2-fluorophenyl)methoxy]-7-[(3-{[(2S)-oxetan-2-yl]methyl}-6-[5-(trifluoromethyl)-4H-1,2,4-triazol-3-yl]-3H-imidazo[4,5-c]pyridin-2-yl)methyl]-3-(trifluoromethyl)-5,6,7,8-tetrahydro-1,7-naphthyridine] |
| < 1 nM | O=c1[nH]nc(-c2cc3nc(CN4CCc5cc(C(F)(F)F)c(OCc6ccc(Cl)cc6F)nc5C4)n(C[C@@H]4CCO4)c3cn2)o1 [Compound 96, 5-[2-({2-[(4-chloro-2-fluorophenyl)methoxy]-3-(trifluoromethyl)-5,6,7,8-tetrahydro-1,7-naphthyridin-7-yl}methyl)-3-{[(2S)-oxetan-2-yl]methyl}-3H-imidazo[4,5-c]pyridin-6-yl]-2,3-dihydro-1,3,4-oxadiazol-2-one] |
| < 1 nM | O=c1[nH]c(-c2ccc3c(c2)nc(CN2CCc4cc(C(F)(F)F)c(OCc5ccc(Cl)cc5F)nc4C2)n3C[C@@H]2CCO2)no1 [Compound 36, 3-[2-({2-[(4-chloro-2-fluorophenyl)methoxy]-3-(trifluoromethyl)-5,6,7,8-tetrahydro-1,7-naphthyridin-7-yl}methyl)-1-{1[(2S)-oxetan-2-yl]methyl}-1H-1,3-benzodiazol-5-yl]-4,5-dihydro-1,2,4-oxadiazol-5-one] |
| < 1 nM | Fc1cc(Cl)ccc1COc1nc2c(cc1C(F)(F)F)CCN(Cc1nc3cc(-c4nnc(C5CC5)[nH]4)ncc3n1C[C@@H]1CCO1)C2 [Compound 65, 2-[(4-chloro-2-fluorophenyl)methoxy]-7-{[6-(5-cyclopropyl-4H-1,2,4-triazol-3-yl)-3-{1[(2S)-oxetan-2-yl]methyl}-3H-imidazo[4,5-c]pyridin-2-yl]methyl}-3-(trifluoromethyl)-5,6,7,8-tetrahydro-1,7-naphthyridine] |
